According to article PMC5156471, “Complementary pharmacological and toxicological characterization data on the pharmacological profile of N-(2,6-dichlorophenyl)-2-(4-methyl-1-piperidinyl) acetamide” (Data in Brief, 2016):
Like-named read-outs stand apart in the source and are kept apart here.

Experiments:
normotensive rats = assay: Cardiovascular response in normotensive conscious rats (tail cuff method); type: in vivo; settings: 50 and 80 mg/kg, p.o.
Method: The hypotensive activity was determined using a standard protocol of Avila-Villarreal et al.. This study was conducted in normotensive rats. […] Systolic and diastolic blood pressure as well as heart rate were recorded before and after treatment at 0, 1, 3, 5 and 7 h by the tail cuff method using a Panlab non-invasive blood pressure system for rodents and dogs (Harvard Apparatus). Percent of reduction in heart rate (HR), systolic blood pressure (SBP) or diastolic blood pressure (DBP) were calculated using diltiazem as control (Fig. 2).

[1] = test system: bone marrow polychromatic erythrocytes; type: in vivo, mice
Method: This test was carried out following standard protocols, [5]. […] Animals were sacrificed 24 h later and the bone marrow from both femurs was flushed out using 2 mL of saline and centrifuged for 5 min at 3000 rpm. The supernatant was discarded, and the pellet was re-suspended in 0.3 mL of saline. Of this smears were made on glass slides. The slides were fixed with methanol and stained with 10% Wright–Giemsa stain. Cells were blindly scored using a light microscope at 100 X magnification. For the analysis of micronucleated cells, 1000 polychromatic erythrocytes (PCE) per animal were scored. In order to assess the cytotoxic effects of compounds, the ratio of PCE to normochromatic erythrocytes (NCE) was determined in 1000 erythrocytes, [5]. The results are presented as the mean number of micronucleated polychromatic erythrocytes (MNPCE) or the ratio PCE:NCE in individual mice (two smears per animal)±SEM for five animals per group (Table 3).

[2] = test system: brine shrimp larvae (Artemia salina L.); assay: Artemia saline lethality test; type: in vivo
[3] = Acute toxicity in mice by the Lorke method; settings: male, ICR, mouse, in vivo, ip
Method: (§1) Experiments were performed on ICR male mice by the Lorke method. Doses were selected according this method. In both phases, mice were observed daily for 14 days for mortality, toxic effects and behavioral changes. Restlessness, respiratory distress, seizures, diarrhea, motor activity, posture and reflexes were qualitatively determined. Body weight was also monitored. The internal organs (including the stomach, heart, lung, liver, and kidneys) were removed at the end of experiment and visually examined for lesions.

ICR male mice = assay: Acute toxicity in mice by the Lorke method; settings: for Dead mice: i.p., dead/treated, observed 14 days
Method: as §1

[4] = mice, i.p. (LIA, lidocaine 100 mg/kg; cyclophosphamide 40 mg/kg), 24 h, mean±SEM, five animals

SMILES | Cardiovascular responses (heart rate, systolic and diastolic blood pressure; in words) (normotensive rats) | MNPCE per 1000 PCE ([1]; male, ICR, mouse, in vivo) | PCE:NCE ([1]; male, ICR, mouse, in vivo) | Genotoxicity in mice (in words) ([1]; mouse, in vivo) | LC50 ([2]; Artemia saline L., 24 h, 100-1000 ppm in triplicate) [ppm] | Toxicity in Brine Ship (in words) ([2]; in vivo) | LD50 at 14 days [3] [mg/kg] | Dead mice (ICR male mice; Phase I, 10 mg/kg) | Dead mice (ICR male mice; Phase I, 100 mg/kg) | Dead mice (ICR male mice; Phase I, 1000 mg/kg) | Dead mice (ICR male mice; Phase II, 140 mg/kg) | Dead mice (ICR male mice; Phase II, 225 mg/kg) | Dead mice (ICR male mice; Phase II, 370 mg/kg) | Dead mice (ICR male mice; Phase II, 600 mg/kg) | Macroscopic damage of internal organs (stomach, heart, lung, liver, kidneys) (ICR male mice; mice, visual examination at the end of experiment (14 days)) | Toxicity in mice (in words) (ICR male mice; mouse, in vivo) | MNPCE per 1000 PCE [1, 4] | PCE:NCE [1, 4]
CC1CCN(CC(=O)Nc2c(Cl)cccc2Cl)CC1 [LIA, N-(2,6-dichlorophenyl)-2-(4-methyl-1-piperidinyl)acetamide] | does not modify cardiovascular responses | 5.8±1.9 ^⁎^, ^# | 20.7±1.6 | not genotoxic | 335.1 ±85.7 | not toxic | 800 | 0/3 | 0/3 | 3/3 | 0/3 | 0/3 | 0/3 | 3/3 | Neither LIA nor lidocaine produced visible macroscopically damage | not toxic | – | –
O=P1(N(CCCl)CCCl)NCCCO1 (stereo not drawn) [Cyclophosphamide, reference compound] | – | – | – | – | – | – | – | – | – | – | – | – | – | – | – | – | 82.6±1.8 | 14±0.3
